Data from publication PMC11121183, “Functional Characterization of a Spectrum of Genetic Variants in a Family with Succinic Semialdehyde Dehydrogenase Deficiency” (International Journal of Molecular Sciences, 2024).

Experiments:
[1] = target: T1, Succinic semialdehyde dehydrogenase (SSADH) (Homo sapiens, UniProt P51649, H180Y/N255D); experiment: intrinsic fluorescence titration (excitation […] nm); assay type: binding
T1 construct: gene ALDH5A1; recombinant SSADH, amino acids 48–535, N-terminal His-tag
T1 sequence (P51649 48-535 H180Y/N255D): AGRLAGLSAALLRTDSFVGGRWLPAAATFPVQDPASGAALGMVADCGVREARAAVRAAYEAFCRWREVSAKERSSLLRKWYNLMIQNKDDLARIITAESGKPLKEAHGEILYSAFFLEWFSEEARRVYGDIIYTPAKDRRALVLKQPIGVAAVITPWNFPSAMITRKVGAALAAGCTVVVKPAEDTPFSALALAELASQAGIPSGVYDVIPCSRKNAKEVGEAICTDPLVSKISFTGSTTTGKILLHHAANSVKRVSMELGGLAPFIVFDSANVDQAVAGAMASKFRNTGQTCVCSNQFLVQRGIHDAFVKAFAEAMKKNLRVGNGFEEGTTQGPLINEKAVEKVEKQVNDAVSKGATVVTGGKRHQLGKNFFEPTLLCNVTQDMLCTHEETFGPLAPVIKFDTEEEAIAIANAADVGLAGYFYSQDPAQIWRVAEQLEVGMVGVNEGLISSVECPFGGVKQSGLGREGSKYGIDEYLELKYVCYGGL

[2] = target: T2, Succinic semialdehyde dehydrogenase (SSADH) (Homo sapiens, UniProt P51649); experiment: intrinsic fluorescence titration (excitation […] nm); CD and Tm shift of about […] °C in support; assay type: binding
T2 construct: gene ALDH5A1; recombinant SSADH, amino acids 48–535, N-terminal His-tag
T2 sequence (P51649 48-535): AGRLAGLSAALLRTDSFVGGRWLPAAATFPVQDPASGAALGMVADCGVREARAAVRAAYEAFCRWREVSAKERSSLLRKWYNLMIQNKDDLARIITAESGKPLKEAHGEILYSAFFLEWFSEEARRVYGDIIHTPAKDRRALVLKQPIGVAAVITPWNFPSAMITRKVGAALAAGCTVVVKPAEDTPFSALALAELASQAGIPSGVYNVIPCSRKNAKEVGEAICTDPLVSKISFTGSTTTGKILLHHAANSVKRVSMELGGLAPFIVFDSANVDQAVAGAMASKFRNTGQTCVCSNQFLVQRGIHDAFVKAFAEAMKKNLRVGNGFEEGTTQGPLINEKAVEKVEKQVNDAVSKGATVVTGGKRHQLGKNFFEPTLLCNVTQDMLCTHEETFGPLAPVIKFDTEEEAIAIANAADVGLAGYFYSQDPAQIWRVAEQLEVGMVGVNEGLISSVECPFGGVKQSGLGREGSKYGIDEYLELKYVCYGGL

[3] = target: T3, Succinic semialdehyde dehydrogenase (SSADH) (Homo sapiens, UniProt P51649, H180Y); experiment: as above; assay type: binding
T3 construct: gene ALDH5A1; recombinant SSADH, amino acids 48–535, N-terminal His-tag
T3 sequence (P51649 48-535 H180Y): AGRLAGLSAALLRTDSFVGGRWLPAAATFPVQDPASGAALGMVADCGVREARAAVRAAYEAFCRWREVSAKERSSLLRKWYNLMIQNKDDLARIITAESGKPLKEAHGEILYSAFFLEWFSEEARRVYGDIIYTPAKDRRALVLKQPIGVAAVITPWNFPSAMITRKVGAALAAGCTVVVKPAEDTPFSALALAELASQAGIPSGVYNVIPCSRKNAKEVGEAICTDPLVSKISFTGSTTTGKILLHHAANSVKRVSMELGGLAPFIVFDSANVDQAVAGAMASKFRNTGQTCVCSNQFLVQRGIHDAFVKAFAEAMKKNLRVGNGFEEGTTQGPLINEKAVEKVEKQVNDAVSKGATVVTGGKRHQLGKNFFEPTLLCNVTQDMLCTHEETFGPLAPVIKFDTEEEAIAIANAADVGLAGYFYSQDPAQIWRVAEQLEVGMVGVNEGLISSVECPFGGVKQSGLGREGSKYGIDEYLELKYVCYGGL

[4] = target: T3, Succinic semialdehyde dehydrogenase (SSADH); experiment: purified enzyme turnover, NADH formation at […] nm ([…] SSA, […] NAD+); assay type: biochemical
[5] = target: T2, Succinic semialdehyde dehydrogenase (SSADH); experiment: as above; assay type: biochemical
[6] = target: the molecule itself; experiment: SEC; Superdex 200 (10/300), 100 mM potassium phosphate, 150 mM NaCl, pH 8; 0.1 to 5 mg/mL protein loaded; 280 nm signal

With NC(=O)c1ccc[n+]([C@@H]2O[C@H](COP(=O)([O-])OP(=O)(O)OC[C@H]3O[C@@H](n4cnc5c(N)ncnc54)[C@H](O)[C@@H]3O)[C@@H](O)[C@H]2O)c1 [NAD+] the Kd [1] was 33 ± 13 µM, the Kd [2] was 2.8 ± 0.3 µM and the Kd [3] was 3 ± 1 µM.

With O=CCCC(=O)O [Succinic semialdehyde] the “purified enzyme turnover, NADH formation at 340 nm (10 μM SSA, 500 μM NAD+)” value [4] was 54 s⁻¹ and the “purified enzyme turnover, NADH formation at 340 nm (10 μM SSA, 500 μM NAD+)” value [5] was 65 s⁻¹.

B1: Succinic semialdehyde dehydrogenase (SSADH), wildtype, recombinant (amino acids 48-535) (enzyme, human, UniProt P51649-1 48-535, looked up)
chain: AGRLAGLSAALLRTDSFVGGRWLPAAATFPVQDPASGAALGMVADCGVREARAAVRAAYEAFCRWREVSAKERSSLLRKWYNLMIQNKDDLARIITAESGKPLKEAHGEILYSAFFLEWFSEEARRVYGDIIHTPAKDRRALVLKQPIGVAAVITPWNFPSAMITRKVGAALAAGCTVVVKPAEDTPFSALALAELASQAGIPSGVYNVIPCSRKNAKEVGEAICTDPLVSKISFTGSTTTGKILLHHAANSVKRVSMELGGLAPFIVFDSANVDQAVAGAMASKFRNTGQTCVCSNQFLVQRGIHDAFVKAFAEAMKKNLRVGNGFEEGTTQGPLINEKAVEKVEKQVNDAVSKGATVVTGGKRHQLGKNFFEPTLLCNVTQDMLCTHEETFGPLAPVIKFDTEEEAIAIANAADVGLAGYFYSQDPAQIWRVAEQLEVGMVGVNEGLISSVECPFGGVKQSGLGREGSKYGIDEYLELKYVCYGGL
notes: No thrombin cleavage of the His-tag is described; also called WT SSADH; WT; source: E. coli BL21, purified (HisTrap, single step)
B1 was tested, and the “stoichiometry N” value [6] was 4.

B2: Succinic semialdehyde dehydrogenase (SSADH) His180Tyr variant, recombinant (amino acids 48-535) (enzyme, human, UniProt P51649-1 48-535, looked up)
chain: AGRLAGLSAALLRTDSFVGGRWLPAAATFPVQDPASGAALGMVADCGVREARAAVRAAYEAFCRWREVSAKERSSLLRKWYNLMIQNKDDLARIITAESGKPLKEAHGEILYSAFFLEWFSEEARRVYGDIIYTPAKDRRALVLKQPIGVAAVITPWNFPSAMITRKVGAALAAGCTVVVKPAEDTPFSALALAELASQAGIPSGVYNVIPCSRKNAKEVGEAICTDPLVSKISFTGSTTTGKILLHHAANSVKRVSMELGGLAPFIVFDSANVDQAVAGAMASKFRNTGQTCVCSNQFLVQRGIHDAFVKAFAEAMKKNLRVGNGFEEGTTQGPLINEKAVEKVEKQVNDAVSKGATVVTGGKRHQLGKNFFEPTLLCNVTQDMLCTHEETFGPLAPVIKFDTEEEAIAIANAADVGLAGYFYSQDPAQIWRVAEQLEVGMVGVNEGLISSVECPFGGVKQSGLGREGSKYGIDEYLELKYVCYGGL
notes: No thrombin cleavage of the His-tag is described; also called H180Y; rs2760118 variant; source: E. coli BL21, purified (HisTrap, single step)
B2 was tested, and the “stoichiometry N” value [6] was 4.
